# Assay results reported in PMC9849758, “Chemically diverse activity-based probes with unexpected inhibitory mechanisms targeting trypsin-like serine proteases” (Frontiers in Chemistry, 2023).
# Entries after “also recorded” stand apart in the source; their conditions may differ. Where a name gives a salt, the structure may show the parent alone. Read-outs that look alike come from different tables or passages of the source.
# Columns and labels:
# Format in all cases: biochemical
# Thrombin [1] = target: T1, Thrombin (Homo sapiens, UniProt P00734); assay: Kinetic progress curves (kapp, K1, KI*, mechanism); conditions: for Ki / Thrombin kapp: mean ± SD; for Thrombin kapp: apparent second-order rate constant from progress curves; for Thrombin mechanism of inhibition: defined by the progress curves: slow-binding (Rev.) or irreversible (Irrev.)
# T1 construct: purchased R&D
# Protocol: (§1) Because the compounds described in this paper were previously described as irreversible inhibitors, the IC50 value is inversely correlated with the second-order rate constant of inactivation. For a simple pseudo-first-order inactivation process, the activity after incubation with inhibitor (vi) varies with the inhibitor concentration (i), as described in the following equation: vi=v0·e^−kit where v0 is the activity in the absence of an inhibitor, k is the second-order rate constant of inactivation, and t is the time. The inactivation rate constant was determined from the time course of inhibition.
# (§2) Kinetic assays were performed in the following manner. The inhibitor was mixed with the substrate, and the buffer solution with the enzyme was added at the time zero. The progress curves show the release of pNA or AMC as a function of time. Initially, no inhibitor is bound to the enzyme, and the tangent to the progress curve (dA/dt) is proportional to the free enzyme concentration. The free enzyme concentration decreases over time due to inhibitor binding kinetics, as described above. Progress curves were recorded in pseudo-first-order conditions ([I]0>>[E]0) and with less than 10% conversion of the substrate during the entire time course. In these conditions, dA/dt decreases exponentially with time. The progress curves were fitted with the integrated rate equation with GraFit7 to yield a value for kobs, a pseudo-first-order rate constant. At=Ao+vs∙t+vi−vs∙1−e^−kobs∙t/kobs where At is the absorbance at time t, A0 is the absorbance at time zero, vi is the initial rate and vs is the velocity at the steady-state.
# (§3) The apparent second-order rate constant (kapp) was calculated from the slope of the linear part of the plot of kobs vs. the inhibitor concentration ([I]0). In the case of competition between the inhibitor and the substrate, kapp is smaller than the “real” second-order rate constant k discussed above because a certain fraction of the enzyme is present as an enzyme-substrate complex. kapp depends on the substrate concentration used in the experiment, as described by [Lambeir et al. (1996)].
# (§4) The apparent equilibrium constants were obtained from the following equations, vi/vo=1/1+I/K1; vS/vo=1/1+I/KI* where vi is the initial rate, vs is the steady-state velocity and vo is the uninhibited initial rate.
# Thrombin [2] = target: T1, Thrombin; assay: Jump dilution, determination of inhibition type; conditions: inhibitor at 10 times IC50, 15 min, diluted 10-fold or 100-fold; Rev./Irrev.
# Protocol: The dissociation of the enzyme-inhibitor complex was monitored by substrate hydrolysis over time ([Joossens et al., 2006]).
# Because ABPs are designed to be irreversible serine protease inhibitors, the IC50 is exclusively used as a first discriminatory evaluation. When an inhibitor is irreversible, its IC50 value not only depends on the substrate and enzyme concentration but also on the time of incubation with the enzyme before the reaction is started by adding the substrate. […] The progress curve in the presence of an irreversible inhibitor will show final velocities equal to zero (Figure 6C). In contrast, for a reversible inhibitor, progress curves have a non-zero final steady-state velocity (Figure 6A) ([McWhirter, 2021]). To corroborate the inhibitory mechanism of the compounds, jump-dilution assays were performed. These use an inhibitor concentration of 10-fold the IC50 for the incubation, and a posteriori, the reaction mixture is diluted 10-fold or 100-fold before adding the substrate. In the case of an irreversible inhibitor, enzymatic activity is not regained (Figure 6D), whereas, in the case of a reversible compound, a slow release of the inhibitor and a gradual increase of the enzymatic activity rate is observed (Figure 6B) ([Copeland, 2013]; [McWhirter, 2021]). The jump-dilution assays confirmed the behavior described by the progress curves.
# 2.2.2 Jump dilution results
# Supplementary Table 2. Jump dilution of selected alkyne and desthiobiotin probes against a panel of trypsin-like serine proteases. […]
# # R R DtBa 3 tryptase Thrombin uPA CatG
# 32b H Alk Irrev. Irrev. Rev. Irrev. Rev.
# 45b DtB Irrev. Irrev. Rev. N.D. N.D.
# 33b Alk Irrev. Irrev. Rev. Irrev. Rev.
# 46b Cl DtB Irrev. Irrev. Rev. N.D. N.D.
# 34b H Alk Rev. Rev. Rev. Irrev. Rev.
# 50b DtB Rev. Rev. Rev. Irrev. Rev.
# 35b Alk Rev. Rev. Rev. Irrev. Rev.
# 52b NHCOMe DtB Rev. Rev. Rev. Irrev. Rev.
# 36b Alk Rev. Rev. Rev. Irrev. Rev.
# 54b Cl DtB Rev. Rev. Rev. Irrev. Rev.
# 37b Alk Irrev. Irrev. N.D. Irrev. Irrev.
# 55b H DtB Irrev. Irrev. N.D. Irrev. Irrev.
# 38b Alk Irrev. Irrev. N.D. Irrev. Irrev.
# 56b NHCOMe DtB Irrev. Irrev. N.D. Irrev. Irrev.
# 39b Alk Irrev. Irrev. N.D. Irrev. Rev.
# 57b Cl DtB Irrev. Irrev. N.D. Irrev. Rev.
# 41b H Alk Irrev. Irrev. Irrev. N.D. N.D.
# 31b Pro-Lys H Alk Irrev. Irrev. Irrev. Irrev. N.D. a Alk: ABP precursor bearing an alkyne; DtB: desthiobiotin probe b Panel of serine proteases abbreviations: urokinase plasminogen activator (uPA), cathepsin G (catG) N.D.: IC50 is greater than 10µM, and jump dilution was not performed
# 2.2.3 Progress curves and Jump dilution experiments
# Kinetic assays were performed in the following manner. The inhibitor was mixed with the substrate, and the buffer solution with the enzyme was added at the time zero. The progress curves show the release of para-nitroaniline (pNA) or 7-amino-4-methyl coumarin (AMC) as a function of time.
# To monitor the dissociation of the inhibitor-enzyme, aliquots of the enzyme were incubated at 37 °C without and with the inhibitor at a concentration 10 times higher than its IC 50. The enzyme […]
# min, the aliquots were diluted 10-fold or 100-fold into the substrate concentration and assay buffer used for the IC50 determination. The dissociation of the enzyme-inhibitor complex was monitored by substrate hydrolysis over time. Blue lines represent the control where no inhibitor was present. Pink lines represent the assay with inhibitor.
# Trypsin-3 = target: T2, Trypsin-3 (Homo sapiens, UniProt P35030); assay: Kinetic progress curves (kapp, K1, KI*, mechanism); set-up: purchased R&D; conditions: for Ki / Trypsin-3 kapp: mean ± SD; for Trypsin-3 kapp: apparent second-order rate constant from progress curves; for Trypsin-3 mechanism of inhibition: defined by the progress curves: slow-binding (Rev.) or irreversible (Irrev.)
# T2 sequence (P35030 1-304): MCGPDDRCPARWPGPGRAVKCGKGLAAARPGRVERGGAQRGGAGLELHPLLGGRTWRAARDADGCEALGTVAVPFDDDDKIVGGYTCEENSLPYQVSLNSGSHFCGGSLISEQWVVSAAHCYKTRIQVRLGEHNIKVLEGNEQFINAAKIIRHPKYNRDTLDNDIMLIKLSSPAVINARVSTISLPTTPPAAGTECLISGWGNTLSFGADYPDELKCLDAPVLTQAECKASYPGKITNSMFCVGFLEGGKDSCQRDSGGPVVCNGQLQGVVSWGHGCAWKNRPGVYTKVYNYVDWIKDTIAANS
# Protocol: as §1, §2, §3, §4
# β-tryptase = β-tryptase (Homo sapiens, UniProt P20231); assay: Kinetic progress curves (kapp, K1, KI*, mechanism); set-up: purchased EnzoLife Sciences; conditions: for β-tryptase kapp: apparent second-order rate constant from progress curves; for β-tryptase kapp / Ki: mean ± SD; for β-tryptase mechanism of inhibition: defined by the progress curves: slow-binding (Rev.) or irreversible (Irrev.)
# Chain of β-tryptase (P20231 31-275): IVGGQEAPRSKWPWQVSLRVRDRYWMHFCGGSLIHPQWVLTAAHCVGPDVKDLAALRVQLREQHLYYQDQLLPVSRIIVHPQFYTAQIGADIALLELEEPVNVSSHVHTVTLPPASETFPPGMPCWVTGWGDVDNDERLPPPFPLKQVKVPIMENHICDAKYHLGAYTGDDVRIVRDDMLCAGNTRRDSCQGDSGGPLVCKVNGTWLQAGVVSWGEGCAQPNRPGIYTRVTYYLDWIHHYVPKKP
# Protocol: as §1, §2, §3, §4
# [3] = Thrombin KI*, apparent equilibrium constant of the overall process
# [4] = Trypsin-3 K1, apparent equilibrium constant of the first step of slow-binding
# [5] = Trypsin-3 KI*, apparent equilibrium constant of the overall process
# [6] = β-tryptase K1, apparent equilibrium constant of the first step of slow-binding
# [7] = β-tryptase KI*, apparent equilibrium constant of the overall process
smiles,measurement,setting,value
CC(=O)Nc1ccc(OP(=O)(Oc2ccc(NC(C)=O)cc2)C(Cc2ccc(NC(=N)N)cc2)NC(=O)OCCCc2cn(CCOCCOCCOCCNC(=O)CCCCC[C@H]3NC(=O)N[C@H]3C)nn2)cc1 (some centres unmarked) [52b],Ki,Thrombin [1]; [3],620 ± 80 nM
same,Thrombin kapp,Thrombin [1],49 ± 5 M⁻¹ s⁻¹
same,Thrombin mechanism of inhibition,Thrombin [1],Rev.
same,Thrombin jump dilution result,Thrombin [2],Rev.
same,Ki,Trypsin-3; [4],17 ± 0.5 nM
same,Ki,Trypsin-3; [5],1 nM
same,Trypsin-3 kapp,Trypsin-3,86 × 10^3 ± 8250 M^−1 s^−1
same,Trypsin-3 mechanism of inhibition,Trypsin-3,Rev.
same,β-tryptase kapp,β-tryptase,18 × 10^3 ± 1184 M^−1 s^−1
same,β-tryptase mechanism of inhibition,β-tryptase,Reversible and Rev.
same,Ki,β-tryptase; [6],680 ± 70 nM
same,Ki,β-tryptase; [7],60 ± 3 nM
"C#CCCCOC(=O)NC(c1ccc(NC(=N)N)cc1)P(=O)(Oc1ccccc1)Oc1ccccc1.O=C(O)C(F)(F)F (centres unmarked) [37b, Pent-4-yn-1-yl ((diphenoxyphosphoryl)(4-guanidinophenyl)methyl)carbamate trifluoroacetate salt]",Trypsin-3 kapp,Trypsin-3,293 ± 34 M⁻¹ s⁻¹
same,Trypsin-3 mechanism of inhibition,Trypsin-3,Irrev.
same,β-tryptase kapp,β-tryptase,375 ± 34 M⁻¹ s⁻¹
same,β-tryptase mechanism of inhibition,β-tryptase,Irrev.
"C[C@@H]1NC(=O)N[C@@H]1CCCCCC(=O)NCCOCCOCCOCCn1cc(CCCOC(=O)NC(Cc2ccc(NC(=N)N)cc2)P(=O)(Oc2ccccc2)Oc2ccccc2)nn1 (stereo partly drawn) [50b, 3-(1-(18-((4R,5S)-5-methyl-2-oxoimidazolidin-4-yl)-13-oxo-3,6,9-trioxa-12-azaoctadecyl)-1H-1,2,3-triazol-4-yl)propyl (1-(diphenoxyphosphoryl)-2-(4-guanidinophenyl)ethyl)carbamate trifluoroacetate salt]",Ki,Thrombin [1]; [3],1550 ± 250 nM
same,Thrombin kapp,Thrombin [1],47 ± 5 M⁻¹ s⁻¹
same,Thrombin mechanism of inhibition,Thrombin [1],Rev.
same,Thrombin jump dilution result,Thrombin [2],Rev.
same,Ki,Trypsin-3; [4],98 ± 22 nM
same,Ki,Trypsin-3; [5],3 ± 0.2 nM
same,Trypsin-3 kapp,Trypsin-3,49 × 10^3 ± 2979 M^−1 s^−1
same,Trypsin-3 mechanism of inhibition,Trypsin-3,Rev.
same,β-tryptase kapp,β-tryptase,32 × 10^2 ± 613 M^−1 s^−1
same,β-tryptase mechanism of inhibition,β-tryptase,Rev.
same,Ki,β-tryptase; [6],3280 ± 500 nM
same,Ki,β-tryptase; [7],410 ± 30 nM
C[C@@H]1NC(=O)N[C@@H]1CCCCCC(=O)NCCOCCOCCOCCn1cc(CCCOC(=O)NC(c2ccc(NC(=N)N)cc2)P(=O)(Oc2ccccc2)Oc2ccccc2)nn1 (some centres unmarked) [55b],Trypsin-3 kapp,Trypsin-3,231 ± 18 M⁻¹ s⁻¹
same,Trypsin-3 mechanism of inhibition,Trypsin-3,Irrev.
same,β-tryptase kapp,β-tryptase,347 ± 19 M⁻¹ s⁻¹
same,β-tryptase mechanism of inhibition,β-tryptase,Irrev.
C#CCCCOC(=O)NC(C1CCN(C(=N)N)CC1)P(=O)(Oc1ccccc1)Oc1ccccc1 (centres unmarked) [41b],Thrombin kapp,Thrombin [1],41 × 10^2 ± 38 M^−1 s^−1
same,Thrombin mechanism of inhibition,Thrombin [1],irreversible inhibition; also recorded: Irrev
same,Thrombin jump dilution result,Thrombin [2],Irrev.
same,Trypsin-3 kapp,Trypsin-3,17 × 10^2 ± 142 M^−1 s^−1
same,Trypsin-3 mechanism of inhibition,Trypsin-3,irreversible inhibition; also recorded: Irrev
same,β-tryptase kapp,β-tryptase,27 ± 2 M⁻¹ s⁻¹
same,β-tryptase mechanism of inhibition,β-tryptase,irreversible inhibition; also recorded: Irrev
"C#CCCCOC(=O)NC(c1ccc(NC(=N)N)cc1)P(=O)(Oc1ccc(NC(C)=O)cc1)Oc1ccc(NC(C)=O)cc1 (centres unmarked) [38b, Pent-4-yn-1-yl ((bis(4-acetamidophenoxy)phosphoryl)(4-guanidinophenyl)methyl) carbamate]",Trypsin-3 kapp,Trypsin-3,358 ± 6 M⁻¹ s⁻¹
same,Trypsin-3 mechanism of inhibition,Trypsin-3,Irrev.
same,β-tryptase kapp,β-tryptase,20 × 10^2 ± 54 M^−1 s^−1
same,β-tryptase mechanism of inhibition,β-tryptase,Irrev.
C[C@@H]1NC(=O)N[C@@H]1CCCCCC(=O)NCCOCCOCCOCCn1cc(CCCOC(=O)NC(c2ccc(NC(=N)N)cc2)P(=O)(Oc2ccc(Cl)cc2)Oc2ccc(Cl)cc2)nn1 (some centres unmarked) [57b],Trypsin-3 kapp,Trypsin-3,13 × 10^2 ± 340 M^−1 s^−1
same,Trypsin-3 mechanism of inhibition,Trypsin-3,Irrev.
same,β-tryptase kapp,β-tryptase,"65 × 10^2 ± 1,203 M^−1 s^−1"
same,β-tryptase mechanism of inhibition,β-tryptase,Irrev.
"C#CCCCOC(=O)NC(c1ccc(NC(=N)N)cc1)P(=O)(Oc1ccc(Cl)cc1)Oc1ccc(Cl)cc1 (centres unmarked) [39b, Pent-4-yn-1-yl ((bis(4-chlorophenoxy)phosphoryl)(4-guanidinophenyl)methyl)carbamate]",Trypsin-3 mechanism of inhibition,Trypsin-3,Irrev.
same,β-tryptase mechanism of inhibition,β-tryptase,irreversible; also recorded: Irrev
C[C@@H]1NC(=O)N[C@@H]1CCCCCC(=O)NCCOCCOCCOCCn1cc(CCCOC(=O)NC(CCCNC(=N)N)P(=O)(Oc2ccc(Cl)cc2)Oc2ccc(Cl)cc2)nn1 (some centres unmarked) [46b],Thrombin kapp,Thrombin [1],63 × 10^2 ± 290 M^−1 s^−1
same,Thrombin mechanism of inhibition,Thrombin [1],Rev.
same,Ki,"Thrombin [1]; read-out: Thrombin K1, apparent equilibrium constant of the first step of slow-binding",950 ± 200 nM
same,Ki,"Thrombin [1]; read-out: Thrombin KI*, apparent equilibrium constant of the overall process",70 ± 9 nM
same,Thrombin jump dilution result,Thrombin [2],Rev.
same,Trypsin-3 kapp,Trypsin-3,92 × 10^2 ± 349 M^−1 s^−1
same,Trypsin-3 mechanism of inhibition,Trypsin-3,Irrev.
same,β-tryptase kapp,β-tryptase,75 × 10^2 ± 1475 M^−1 s^−1
same,β-tryptase mechanism of inhibition,β-tryptase,Irrev.
CC(=O)Nc1ccc(OP(=O)(Oc2ccc(NC(C)=O)cc2)C(NC(=O)OCCCc2cn(CCOCCOCCOCCNC(=O)CCCCC[C@H]3NC(=O)N[C@H]3C)nn2)c2ccc(NC(=N)N)cc2)cc1 (some centres unmarked) [56b],Trypsin-3 kapp,Trypsin-3,334 ± 85 M⁻¹ s⁻¹
same,Trypsin-3 mechanism of inhibition,Trypsin-3,Irrev.
same,β-tryptase kapp,β-tryptase,321 ± 2 M⁻¹ s⁻¹
same,β-tryptase mechanism of inhibition,β-tryptase,Irreversible; also recorded: Irrev
